Experimental data as given in US7732475B2, “Histone deacetylase inhibitors” (Takeda San Diego, Inc., priority 2005, dated 2010).

Target: HDAC2 (Homo sapiens, UniProt Q92769)
Assay: HDAC2 fluorescence inhibition assay (tBoc-Lys(Ac)-AMC)

Chain of HDAC2 (Q92769 with tags, fused parts or gaps): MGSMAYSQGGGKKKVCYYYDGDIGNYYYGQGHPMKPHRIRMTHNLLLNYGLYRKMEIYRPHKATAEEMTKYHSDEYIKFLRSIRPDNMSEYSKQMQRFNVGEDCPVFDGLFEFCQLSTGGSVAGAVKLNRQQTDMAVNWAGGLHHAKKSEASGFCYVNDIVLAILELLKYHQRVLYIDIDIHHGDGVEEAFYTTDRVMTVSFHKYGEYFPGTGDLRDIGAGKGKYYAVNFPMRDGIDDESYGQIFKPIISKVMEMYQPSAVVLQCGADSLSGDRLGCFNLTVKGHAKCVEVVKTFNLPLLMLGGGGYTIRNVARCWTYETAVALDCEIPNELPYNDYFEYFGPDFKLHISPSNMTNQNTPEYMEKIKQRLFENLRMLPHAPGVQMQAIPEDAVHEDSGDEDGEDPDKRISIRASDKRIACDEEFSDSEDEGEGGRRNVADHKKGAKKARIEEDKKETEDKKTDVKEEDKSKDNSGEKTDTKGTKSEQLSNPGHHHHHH

`Nc1ccccc1NC(=O)c1ccc(Cn2nc(N)c3ccccc32)cc1` [Example 96, 4-((3-amino-1H-indazol-1-yl)methyl)-N-(2-aminophenyl)benzamide] and `Nc1ccccc1NC(=O)c1ccc(Cn2ncc3c(Cl)cccc32)cc1` [Example 42, N-(2-aminophenyl)-4-((4-chloro-1H-indazol-1-yl)methyl)benzamide] cannot be ordered by IC50: 50 to 100 nM for the first, ≤ 50 nM for the second.

First: Nc1ccccc1NC(=O)c1ccc(Cn2cc3ccccc3n2)s1 [Example 19, 5-((2H-Indazol-2-yl)methyl)-N-(2-aminophenyl)thiophene-2-carboxamide]
Second: Nc1ccccc1NC(=O)c1ccc(Cn2cc3cc([N+](=O)[O-])ccc3n2)s1 [Example 20, N-(2-Aminophenyl)-5-((5-nitro-2H-indazol-2-yl)methyl)thiophene-2-carboxamide]
The IC50 of the first is higher: 100 to 500 nM for the first, ≤ 50 nM for the second.

`Nc1ccccc1NC(=O)c1ccc(Cn2ccc3cccnc32)cc1` [Example 157, 4-((1H-Pyrrolo[2,3-b]pyridin-1-yl)methyl)-N-(2-aminophenyl)benzamide] and `Cc1ccnn1Cc1ccc(C(=O)Nc2ccccc2N)cc1` [Example 148, N-(2-aminophenyl)-4-((5-methyl-1H-pyrazol-1-yl)methyl)benzamide] fall in the same range of IC50: 100 to 500 nM for the first, 100 to 500 nM for the second.

`Nc1ccccc1NC(=O)c1ccc(Cn2cc(C(=O)Nc3ccccc3)cn2)cc1` [Example 127, 1-(4-(2-aminophenylcarbamoyl)benzyl)-N-phenyl-1H-pyrazole-4-carboxamide] and `CCCNC(=O)c1cnn(Cc2ccc(C(=O)Nc3ccccc3N)cc2)c1` [Example 149, 1-(4-(2-aminophenylcarbamoyl)benzyl)-N-propyl-1H-pyrazole-4-carboxamide] cannot be ordered by IC50: ≤ 50 nM for the first, ≤ 50 nM for the second.

`Nc1ccccc1NC(=O)c1ccc(Cn2ncc3cc(NC(=O)OCc4cccnc4)ccc32)cc1` [Example 23, Pyridin-3-ylmethyl 1-(4-((2-aminophenyl)carbamoyl)benzyl)-1H-indazol-5-ylcarbamate] and `Nc1ccccc1NC(=O)c1ccc(Cn2cc3cc(NC(=O)OCc4ccccc4)ccc3n2)cc1` [Example 16, Benzyl 2-(4-((2-aminophenyl)carbamoyl)benzyl)-2H-indazol-5-ylcarbamate] cannot be ordered by IC50: ≤ 50 nM for the first, ≤ 50 nM for the second.

First: CN(C)CCCNC(=O)c1cnn(Cc2ccc(C(=O)Nc3ccccc3N)cc2)c1 [Example 144, 1-(4-(2-aminophenylcarbamoyl)benzyl)-N-(3-(dimethylamino)propyl)-1H-pyrazole-4-carboxamide]
Second: Cc1cc(C)n(Cc2ccc(C(=O)Nc3ccccc3N)cc2)n1 [Example 124, N-(2-aminophenyl)-4-((3,5-dimethyl-1H-pyrazol-1-yl)methyl)benzamide]
The IC50 of the first is lower: ≤ 50 nM for the first, 100 to 500 nM for the second. The first is the more potent here.

`Cc1c2cc(F)ccc2nn1Cc1ccc(C(=O)Nc2ccccc2N)cc1` [Example 71, N-(2-aminophenyl)-4-((5-fluoro-3-methyl-2H-indazol-2-yl)methyl)benzamide] and `Cc1ccc2c(c1)c(C)nn2Cc1ccc(C(=O)Nc2ccccc2N)cc1` [Example 80, N-(2-aminophenyl)-4-((3,5-dimethyl-1H-indazol-1-yl)methyl)benzamide] fall in the same range of IC50: 50 to 100 nM for the first, 50 to 100 nM for the second.

Compared with `Nc1ccccc1NC(=O)c1ccc(Cn2ncc3c2CCCC3)cc1` [Example 130, N-(2-aminophenyl)-4-((4,5,6,7-tetrahydro-1H-indazol-1-yl)methyl)benzamide], `COc1cccc2c1cnn2Cc1ccc(C(=O)Nc2ccccc2N)cc1` [Example 85, N-(2-aminophenyl)-4-((4-methoxy-1H-indazol-1-yl)methyl)benzamide] is lower in IC50: 100 to 500 nM for the first, ≤ 50 nM for the second. The second is the more potent here.

Compared with `COC(=O)c1ccc(N)c(NC(=O)c2ccc(Cn3cc4ccccc4n3)cc2)c1` [Example 33, Methyl 3-(4-((2H-indazol-2-yl)methyl)benzamido)-4-aminobenzoate], `Cc1nn(Cc2ccc(C(=O)Nc3ccccc3N)cc2)c2cc(F)c(F)cc12` [Example 56, N-(2-aminophenyl)-4-((5,6-difluoro-3-methyl-1H-indazol-1-yl)methyl)benzamide] is lower in IC50: ≥ 500 nM for the first, 50 to 100 nM for the second.
